According to patent publication US20050112123A1, “Methods of treating proteinuria” (priority 2003, published 2005):
Entries after “also recorded” stand apart in the source; their conditions may differ.

Assays:
podocytes [1] = assay: Hoechst 33342 staining for apoptosis and binucleated cells; format: cell-based; details: at the concentrations of ATRA used in these experiments; statistically insignificant
Method: To ensure that the anti-proliferative effects of ATRA were not confounded by podocyte apoptosis in podocytes or bi-nucleated cells, Hoechst 33342 (Molecular Probes, Eugene, Oreg., USA) staining was performed as previously reported. Hiromura et al. (1999) J Clin Invest 103:597-604. Careful morphological analysis was performed and the percentage of apoptotic cells was quantitated in adherent and non-adherent cells using inverted fluorescent microscopy as previously described. Hiromura et al. (1999) supra; and Mooney et al. (1997) J Immunol 159:3949-3960.

normal mice = assay: Pilot study of adverse side effects in normal mice; format: in vivo, mouse; details: 16 mg/kg i.p. for 7 days
Method: Pilot studies were performed to determine if giving ATRA 16 mg/kg i.p. for 7 days caused adverse side effects in normal mice. […] To determine the effect of ATRA on podocytes in vivo, mice with experimental glomerular disease were given ATRA intraperitoneally (i.p.) on two consecutive days. […] Renal function was assessed by measuring proteinuria and BUN.

[2] = tested on: C57BL6 mice with anti-glomerular antibody-mediated podocyte injury; assay: Anti-glomerular antibody model of podocyte injury: immunostaining of kidney tissue; format: in vivo, mouse; details: for PCNA staining (podocyte proliferation) vs control: FIG. 4; for WT-1 staining (podocyte number) vs control: P<0.001, FIG. 5
Method: Immunofluorescent staining of kidney tissue. Mouse kidney biopsies were fixed in methyl Carnoy's (MC) solution or snap frozen in liquid nitrogen for analysis of proliferating cell nuclear antigen (PCNA), WT-1, podocin, synaptopodin, podocalyxin, and nephrin in vivo following ATRA treatment in anti-glomerular disease. Sections (4 μm) were cut from paraffin embedded MC fixed tissue or from OCT embedded frozen tissue. Frozen sections were then fixed in 100% methanol at −20° C. Mouse monoclonal antibody to PCNA (Beckman Coulter Miami, Fla., USA) or rabbit polyclonal antibody to WT-1 were incubated on MC-fixed tissue, and rabbit polyclonal antibodies to podocin, nephrin, podocalyxin, and synaptopodin were incubated on frozen sections. Primary mouse antibody to PCNA was incubated with a peroxidase conjugated rat anti-mouse IgM antibody (Zymed Laboratories, Inc. So. San Francisco, Calif., USA); all other primary antibodies were incubated with biotinylayted goat anti-rabbit antibody followed by either avidin D conjugated horseradish peroxidase (WT-1) or avidin conjugated AlexaFluor. PCNA and WT-1 stains were visualized with diaminobenzidine (Sigma Chemicals, St. Louis, Mo., USA).
An antibody-mediated model of podocyte injury was induced in C57BL6 mice with a sheep anti-glomerular antibody (two doses of 0.3 ml/20 gm body weight) over two consecutive days. Kim et al. (1999) Kidney Int 55:2349-2361; and Ophascharoensuk et al. (1998) Kidney Int 54:416-425. After the induction of the anti-glomerular model, but before the development of proteinuria, mice were then divided into an experimental group that received daily injections of ATRA 16.6 mg/kg (IP), and a control group that received vehicle (corn oil). […] The podocyte specific proteins WT-1, nephrin, podocin, synaptopodin, were measured by immunostaining at each time point, as was the proliferation marker, PCNA (see above). Using proliferating cell nuclear antigen (PCNA) as a marker of proliferation and WT-1 as a marker for podocytes, the level of podocyte proliferation was determined.

[3] = tested on: conditionally immortalized podocytes from transgenic HIV Tg-26; assay: MTT proliferation assay, HIV transgenic (Tg) podocytes under growth restriction; format: cell-based, mouse; details: 25 ATRA, FIG. 6
Method: To test the hypothesis that ATRA altered the proliferative capacity of podocytes in HIV transgenic mice, conditionally immortalized podocytes harvested from transgenic HIV Tg-26 (Tg) and conditionally immortalized podocytes from transgene free or wild-type podocytes (controls) were compared in a series of studies. Both transgenic and wild-type cell lines were initially plated in “growth permissive” conditions (33° C.) and grown in 10 ml of “standard media,” consisting of 90% RPMI 1640 (Invitrogen, Grand Island, N.Y.), 10% fetal bovine serum (Hyclone, Logan, Utah), 1% L-glutamine (Irvine Scientific, Santa Ana, Calif.), 1% pen-strep (Biosource, Rockville, Md.), 1% sodium bicarbonate (Sigma-Aldrich, St Louis, Mo.) and 1% HEPES buffer (Sigma-Aldrich, Santa, Ana, Calif.), and 1% sodium pyruvate (Irvine Scientific, Santa Ana, Calif.). For growth promotion, 5 μl of mouse gamma interferon were added to 10 ml of media. […]
Each study group was assessed for proliferation (see below) at three different time points as follows: (i) day “1” of growth restriction which was defined as 24 h after plating cells into growth restrictive conditions; (ii) day 7 of growth restrictive conditions. […]
Cell proliferation was assessed by the MTT (Promega, Madison, Wis.) assay on days 1, 7, and 14 of growth restriction. […]

podocytes [4] = assay: Hoecht's Assay of apoptosis for dose selection; format: cell-based, mouse; details: 25 mM ATRA
Method: The dose of 25 mMol/ml ATRA was selected after exposing cells to varying mMol doses of ATRA (10, 25, 50, 75, 100) and then measuring apoptosis with the Hoecht's Assay according to the manufacturer's directions. Apoptosis was not increased at 25 mM.

[5] = nephritic mice, days 5 and 14 after disease induction, vs control nephritic mice given vehicle
[6] = nephritic mice, vs control nephritic animals given vehicle

Q: With `CC1=C(/C=C/C(C)=C/C=C/C(C)=C/C(=O)O)C(C)(C)CCC1` [ATRA, all-trans retinoic acid] as the compound, how does the “cells undergoing apoptosis (Hoechst staining)” value (podocytes [1]) read?
A: Its value is < 4 % of total cells.

Q: What about the adverse side effects (normal mice) of the same compound?
A: Its adverse side effects is “no weight loss, ruffled fur, withdrawal or diarrhea”.

Q: What about the “number of cells that stained positive for PCNA vs normal” value ([2]; experimental (ATRA treated) mice, day 5, P<0.05 vs normal, FIG. 4 legend) of the same compound?
A: Its value is “increased”.

Q: What about the “PCNA staining (podocyte proliferation) vs control” value ([2]; nephritic mice, day 7) of the same compound?
A: The value was “did not have a statistically significant effect”.

Q: And the “WT-1 staining (podocyte number) vs control” value ([2]; nephritic mice, day 7)?
A: The value was “prevented the decrease in WT-1 staining; also recorded: prevented the decrease in podocyte number”.

Q: What about the “PCNA staining (podocyte proliferation) vs control” value ([2]; nephritic mice, day 14) of the same compound?
A: The value was “significantly reduced podocyte proliferation; also recorded: significantly reduced PCNA immunostaining”.

Q: And the “WT-1 staining (podocyte number) vs control” value ([2]; nephritic mice, day 14)?
A: Its value is “prevented the decrease in WT-1 staining; also recorded: prevented the decrease in podocyte number”.

Q: What about the “nephrin immunostaining in kidney” value [2, 5] of the same compound?
A: Its value is “prevented the decrease in immunostaining”.

Q: What about the “podocin immunostaining in kidney” value [2, 5] of the same compound?
A: The value was “prevented the decrease in immunostaining”.

Q: What about the “synaptopodin immunostaining in kidney” value [2, 5] of the same compound?
A: The value was “prevented the decrease in immunostaining”.

Q: And the “CD2AP immunostaining in kidney” value [2, 6]?
A: The value was “not different from control nephritic animals”.

Q: And the “p35 immunostaining in kidney” value [2, 6]?
A: The value was “not different from control nephritic animals”.

Q: And the “reduction of proliferation of transgenic podocytes (MTT) compared to Tg podocytes without ATRA” value ([3]; day 7 of growth restriction, p<.05)?
A: The value was 50%.

Q: And the “reduction of proliferation of transgenic podocytes (MTT) compared to Tg podocytes without ATRA” value ([3]; day 14 of growth restriction, p<0.005)?
A: The value was 25%.

Q: What about the “apoptosis (Hoecht's Assay)” value (podocytes [4]) of the same compound?
A: The value was “not increased”.
